Laboratory results: ChEMBL document CHEMBL1177695, “Discovery and development of natural product-derived chemotherapeutic agents based on a medicinal chemistry approach” (J Nat Prod, 2010)
Values after ≈ are worked out from the molar mass of the structure shown.

Key:
Tubulin = experiment: Inhibition of tubulin polymerization
[1] = Therapeutic index, ratio of IC50 for human H9 cells to EC50 for HIV1; type: cell-based; details: read-out: TI
[2] = system: Human immunodeficiency virus 1; experiment: Antiviral activity against HIV1 infected in human H9 cells after 4 days by p24 antigen ELISA; type: functional, organism-based; details: Human immunodeficiency virus 1, H9, 96 h
[3] = system: Human immunodeficiency virus 1; experiment: Anti-HIV-1 activity in human H9 cells; details: H9, 96 h
H9 = experiment: Cytotoxicity against human H9 cells after 4 days by coulter counter; type: cell-based; details: Homo sapiens, H9, 96 h
[4] = Therapeutic index, ratio of IC50 for human H9 cells to EC50 for HIV 3B; type: cell-based; details: read-out: TI
[5] = system: Human immunodeficiency virus 1; experiment: Antiviral activity against multidrug-resistant HIV1 RTMDR1 infected in H9 cells assessed as inhibition of viral replication by p24 antigen ELISA; type: functional, organism-based; details: Human immunodeficiency virus 1, RTMDR1, H9
[6] = system: Human immunodeficiency virus 1; experiment: Antiviral activity against HIV1 3B infected in H9 cells assessed as inhibition of viral replication by p24 antigen ELISA; type: functional, organism-based; details: Human immunodeficiency virus 1, 3B, H9; read-out: EC50
[7] = Therapeutic index, ratio of IC50 for human H9 cells to EC50 for multidrug-resistant HIV1 RTMDR1; type: cell-based; details: read-out: TI
[8] = Antitumor activity against rat Walker 256 cells allografted in rat at 2.5 mg/kg relative to control; type: functional
LNCaP = experiment: Cytotoxicity against human LNCAP cells after 2 days; type: functional, cell-based; details: 48 h
PC-3 = experiment: Cytotoxicity against human PC3 cells after 2 days; type: functional, cell-based; details: PC-3, 48 h
Escherichia coli = experiment: Antibacterial activity against Escherichia coli; type: functional
Pseudomonas fluorescens = experiment: Antibacterial activity against Pseudomonas fluorescens; type: functional
Staphylococcus aureus = experiment: Antibacterial activity against Staphylococcus aureus; type: functional
Aureobasidium pullulans = experiment: Antifungal activity against Aureobasidium pullulans; type: functional
Pseudomonas aeruginosa = experiment: Antibacterial activity against Pseudomonas aeruginosa; type: functional
Aspergillus niger = experiment: Antifungal activity against Aspergillus niger; type: functional
Hep-2 (human) = experiment: Cytotoxicity against human Hep-2 cells; details: read-out: ED50 (the source's name)
MCF7 = experiment: Cytotoxicity against human MCF7 cells after 72 hrs by sulforhodamine B assay; type: functional; details: MCF7, 72 h, read-out: ED50 (the source's name)
MDA-MB-231 = experiment: Cytotoxicity against human MDA-MB-231 cells after 72 hrs by sulforhodamine B assay; type: functional; details: MDA-MB-231, 72 h, read-out: ED50 (the source's name)
ZR-75-1 = experiment: Cytotoxicity against human ZR-75-1 cells after 72 hrs by sulforhodamine B assay; type: functional; details: ZR-75-1, 72 h, read-out: ED50 (the source's name)
SK-BR-3 = experiment: Cytotoxicity against human SK-BR-3 cells after 72 hrs by sulforhodamine B assay; type: functional; details: SK-BR-3, 72 h, read-out: ED50 (the source's name)
P388 = experiment: Antitumor activity against mouse P388 cells allografted in mouse at 8 mg/kg relative to control; type: functional
KB = experiment: Selectivity ratio of EC50 for human KB cells to EC50 for vincristine-resistant human KB cells; type: functional
[9] = Cytotoxicity against human KBVIN cells after 3 days by sulforhodamine B assay; type: functional, cell-based; details: 72 h

Cc1ccc2c(=O)cc(-c3cccc(F)c3)[nH]c2n1
IC50 (Tubulin): 530 nM

C=C(C)[C@@H]1CC[C@]2(C(=O)O)CC[C@]3(C)[C@H](CC[C@@H]4[C@@]5(C)CC[C@H](OC(=O)CCCC(=O)O)C(C)(C)[C@@H]5CC[C@]43C)[C@@H]12
selectivity ratio [1]: 292
IC50 [2]: 12800 nM
EC50 [3]: 44 nM

CCCc1cc(=O)c2ccc3c(c2o1)[C@@H](OC(=O)C12CCC(C)(C(=O)O1)C2(C)C)[C@@H](OC(=O)C12CCC(C)(C(=O)O1)C2(C)C)C(C)(C)O3 (stereo partly specified)
IC50 (H9): > 37700 nM
selectivity ratio [4]: 1860
EC50 [5]: 140 nM
EC50 [6]: 20 nM
selectivity ratio [7]: > 272

Cc1cnc2[nH]c(-c3cccc(F)c3)cc(=O)c2c1
IC50 (Tubulin): 630 nM

C=C(C)C(=O)O[C@H]1C/C(C)=C\[C@@]2(OCC)C=C(C)[C@H](O2)[C@H]2OC(=O)C(=C)[C@@H]21 [PHANTOMOLIN]
T/C [8]: 378%

CCOC(=O)/C=C/C(C(=O)/C=C/c1ccc(OC)c(OC)c1)=C(O)\C=C\c1ccc(OC)c(OC)c1
IC50 (LNCaP): 200 nM
IC50 (PC-3): 1000 nM

C=C(C)[C@@H]1CC[C@]2(C(=O)O)CC[C@]3(C)[C@H](CC[C@@H]4[C@@]5(C)CC[C@H](OC(=O)CCC(=O)O)C(C)(C)[C@@H]5CC[C@]43C)[C@@H]12
selectivity ratio [1]: 4
IC50 [2]: 16000 nM
EC50 [3]: 4000 nM

CC(C)c1cc(=O)c2ccc3c(c2o1)[C@@H](OC(=O)C12CCC(C)(C(=O)O1)C2(C)C)[C@@H](OC(=O)C12CCC(C)(C(=O)O1)C2(C)C)C(C)(C)O3 (stereo partly specified)
IC50 (H9): 15000 nM
selectivity ratio [4]: 483
EC50 [5]: 140 nM
EC50 [6]: 70 nM
selectivity ratio [7]: > 111

O=C1c2ccccc2C(=O)c2c(NCC3CO3)ccc(NCC3CO3)c21 (stereo unspecified)
MIC (Escherichia coli): 250 µg/mL (≈ 714 µM)
MIC (Pseudomonas fluorescens): 0.13 µg/mL (≈ 0.371 µM)
MIC (Staphylococcus aureus): 0.13 µg/mL (≈ 0.371 µM)
MIC (Aureobasidium pullulans): 0.13 µg/mL (≈ 0.371 µM)
MIC (Pseudomonas aeruginosa): 63 µg/mL (≈ 180 µM)
MIC (Aspergillus niger): 0.13 µg/mL (≈ 0.371 µM)

C=C1C(=O)O[C@H]2[C@H]1[C@@H](OC(=O)/C(C)=C/C)C/C(C)=C/C(=O)/C=C(/C)[C@@H]2O [MOLEPHANTININ]
T/C [8]: 397%

CCOCc1cc(=O)c2ccc3c(c2o1)[C@@H](OC(=O)C12CCC(C)(C(=O)O1)C2(C)C)[C@@H](OC(=O)C12CCC(C)(C(=O)O1)C2(C)C)C(C)(C)O3 (stereo partly specified)
IC50 (H9): 12500 nM
selectivity ratio [4]: 151
EC50 [5]: 370 nM
EC50 [6]: 100 nM
selectivity ratio [7]: 34

C=C1C(=O)O[C@@H]2C[C@@H](C)[C@@H]3CCC(=O)[C@@]3(C)[C@@H](O)[C@H]12
EC50 (Hep-2 (human)): 3.84 µg/mL (≈ 14.5 µM)

COc1cccc2c1ccc1c3occ(C)c3c(=O)oc21
EC50 (MCF7): 2.3 µg/mL (≈ 8.21 µM)
EC50 (MDA-MB-231): 6.4 µg/mL (≈ 22.8 µM)
EC50 (ZR-75-1): 0.1 µg/mL (≈ 0.357 µM)
EC50 (SK-BR-3): 0.2 µg/mL (≈ 0.714 µM)

CCc1cc(=O)c2ccc3c(c2o1)[C@@H](OC(=O)C12CCC(C)(C(=O)O1)C2(C)C)[C@@H](OC(=O)C12CCC(C)(C(=O)O1)C2(C)C)C(C)(C)O3 (stereo partly specified)
IC50 (H9): 37200 nM
selectivity ratio [4]: 116000
EC50 [5]: 60 nM
selectivity ratio [7]: 718

C=C1C(=O)O[C@@H]2C[C@@H](C)[C@@H]3C=CC(=O)[C@@]3(C)[C@@H](O)[C@H]12 [HELENALIN]
T/C (P388): 162%
T/C [8]: 316%
EC50 (Hep-2 (human)): 0.08 µg/mL (≈ 0.305 µM)

CCC1=C(O)c2c(oc(-c3ccc(CC)cc3)cc2=O)C(CC)(CC)C1=O [6,8,8-TRIETHYL-4-ETHYL DESMOSDUMOTIN B]
Ratio EC50 (KB): 320
EC50 [9]: 0.025 µg/mL (≈ 0.0682 µM)

CC1(C)Oc2ccc3c(=O)cc(-c4ccccc4)oc3c2[C@@H](OC(=O)C23CCC(C)(C(=O)O2)C3(C)C)[C@H]1OC(=O)C12CCC(C)(C(=O)O1)C2(C)C (stereo partly specified)
IC50 (H9): 12200 nM
selectivity ratio [4]: 277
EC50 [5]: 170 nM
EC50 [6]: 130 nM
selectivity ratio [7]: 71

C[C@@H]1C[C@H]2OC(=O)[C@@H](C)[C@H]2[C@H](O)[C@]2(C)C(=O)C=C[C@@H]12
EC50 (Hep-2 (human)): 0.8 µg/mL (≈ 3.03 µM)

COc1cccc(-c2cc(=O)c3ccc(C)nc3[nH]2)c1
IC50 (Tubulin): 750 nM

CCC1=C(O)c2c(oc(-c3ccc(C)cc3)cc2=O)C(CC)(CC)C1=O [6,8,8-TRIETHYL-4-METHYL DESMOSDUMOTIN B]
Ratio EC50 (KB): >460
EC50 [9]: 0.03 µg/mL (≈ 0.0851 µM)
